Assay results taken from patent US11136597B2, “Compositions for enhancing targeted gene editing and methods of use thereof” (Yale University, priority 2016, dated 2021).

Tests used:
[1] = system: 120 bp double-stranded DNA fragments containing β-globin sequences; assay: Gel mobility shift assay of SCD tcPNAs; type: binding, human; conditions: physiological conditions
Excerpt: Each 120 bp dsDNA contained the binding site for the respective tcPNAs.

[2] = system: skin fibroblasts from β-globin/GFP mice, IVS2-654 (C→T) mutation; assay: GFP/beta globin gene correction assay in mouse skin fibroblasts with DNA repair or other small molecule inhibitors; type: cell-based; conditions: inhibitor given 48 hours before tcPNA1 + donor DNA nanoparticles, flow cytometry 72 hours later
Procedure: Skin fibroblasts were isolated from the β-globin/GFP mice (intron 2 of human β-globin inserted with in the GFP coding regions) and grown in culture in DMEM medium plus 10% FCS. The intron contains the IVS2-654 (C→T) mutation. The gene correction assay is illustrated in FIG. 5A.
The fibroblasts were treated ex vivo with nanoparticles containing tcPNA1+ Donor DNA and 72 hours later flow cytometry analysis was performed to quantify the % gene correction based on the frequency of GFP positive cells. In some cases, DNA repair inhibitors or other small molecule inhibitors were given 48 hours before the nanoparticle treatment.

[3] = system: CD117+ cells from β-globin/GFP transgenic mice; assay: Ex vivo gene editing in pre-sorted CD117+ cells with or without SCF or c-Kit pathway kinase inhibitors; type: cell-based, mouse; conditions: for gene editing frequency in pre-sorted CD117+ cells in presence of kinase inhibitor: γtcPNA4/donor DNA NPs plus inhibitor: dasatinib 200 nM, MEK162 1.0 μM, BKM120 3.0 μM
Procedure: For CD117+ cell experiments, Iscove's Modified Dulbecco's Media (IMDM) media containing insulin (10 ng/ml), FCS (10%) and erythropoietin (1 U/ml) was used to culture CD117+ cells after isolation using magnetic separation. Where indicated, 3 μg/ml of SCF (Recombinant murine SCF, catalog #250-03, PeproTech, Rocky Hill, N.J.;) was added prior to nanoparticle treatment. 2 mg/ml of NPs were used to treat 50,000-100,000 CD117+ cells in triplicate for 48 hrs in the above media, followed by flow cytometry analyses as above. Inhibitors were used at concentrations of 200 nM (dasatinib), 1.0 μM (MEK162) and 3.0 μM (BKM120). Dasatanib was obtained from Cayman Chemical (Ann Arbor, Mich.; item #11498) and dissolved according to manufacturer's protocol. MEK162 and BKM120 were obtained from Dr. Harriet Kluger, Yale University.
(§1) BD Bioscience kit catalog #558451 (BDImag™ Hematopoietic Progenitor Stem Cell Enrichment Set—DM) was used to isolate CD117 cells. Enrichment for CD117 was confirmed by flow cytometry. CD117+ enriched cells were labeled with CD117-APC (BD Pharmingen™ catalog #558451) antibody. Cells were co-labelled with control IgG antibody (BD Pharmingen™ catalog #555746) for gating purposes. To quantify GFP expression, after CD117 co-labelling, flow cytometry was performed using FACScaliburS by resuspending cells in PBS/1% FBS where green fluorescent cells are measured in the Fl1 channel and APC stained cells are in the Fl4 channel Antibodies for other markers were Ter119 (BD Pharmingen™ catalog #561033) and CD45 APC (BD Pharmingen™ catalog #561018).
To explore the mechanism of the increased gene editing in CD117+ cells, the requirement of c-Kit-dependent signaling for elevated gene correction or whether CD117 simply serves as a marker for the increased susceptibility to gene editing was distinguished. To do this, γtcPNA4/donor DNA NP-mediated gene editing was assayed in pre-sorted CD117+ cells in the presence or absence of selected kinase inhibitors (FIG. 2D). Dasatinib, which inhibits the c-Kit kinase in addition to the BCR/Abl and Src kinases, reduced the gene editing from 7% to 2.0%.

[4] = system: homology-dependent repair (HDR); assay: Luciferase reporter gene assay for homology-dependent repair (HDR) in CD117+ cells; type: cell-based, mouse; conditions: CD117+ cells
Procedure: An inactivating I-Sce1 site was cloned 56 amino acids into the firefly luciferase open reading frame under the control of a CMV promoter. The reporter construct also contains a promoterless luciferase gene used as a template for homologous recombination. A double-strand break in the luciferase reporter is created by in vitro digestion with the I-Sce I restriction enzyme (NEB #R0694L). Plasmid DNA was digested with I-Sce 1 for 1 hour at 37° C. at a ratio of 10 units enzyme to 1 μg DNA and then the enzyme was inactivated at 65° C. for 20 minutes. The linearization of the plasmid was confirmed for each digestion via gel electrophoresis and the linear plasmid was purified using the Qiagen Qiaquick spin columns. After separation CD117+ and CD117-cells from bone marrow of β-globin/GFP transgenic mice, cells were transfected using the Lonza 2b Nucleofector Device. 5×10^5 cells were transfected with 1 μg of either the luciferase reporter vector or a positive control firefly luciferase expression vector, along with 50 ng of a renilla luciferase expression plasmid as a transfection efficiency control. All transfections were performed in triplicate. After transfection the cells were plated at a density of 5×10^5 cells/ml in 12-well plates. After 24 hours incubation post transfection, luciferase activity was measured using the Promega Dual Luciferase Assay Kit. In each sample firefly luciferase activity was normalized to the renilla luciferase transfection control. Reporter reactivation was calculated as a ratio of normalized firefly luciferase activity in the cells transfected with the reporter plasmid to the positive control.
To test whether the above increases in DNA repair gene expression could be correlated with functional differences in DNA repair, a luciferase-based assay was used to quantify repair of DNA double-strand breaks (DSBs) by HDR. In this assay, repair of a DSB in a reporter plasmid via intramolecular homologous recombination creates (“reactivates”) a functional luciferase gene (FIG. 2H), and so the assay provides a measure of HDR capacity (FIG. 2J).

[5] = system: IVS2-654 (C→T) mutation within the β-globin/GFP fusion gene; assay: Ex vivo gene correction (% GFP+ cells, flow cytometry) in bone marrow cells from β-globin/GFP transgenic mice; type: cell-based, mouse; conditions: total bone marrow cells, 2 mg/ml PLGA NPs with donor DNA, 48 hr
Excerpt: To assay for gene editing in a robust and quantitative manner, a transgenic mouse model was utilized with a β-globin/GFP fusion transgene of human β-globin intron 2 carrying a thalassemia-associated IVS2-654 (C→T) mutation embedded within the GFP coding sequence, resulting in incorrect splicing of β-globin/GFP mRNA and lack of GFP expression (Sazani, et al., Nat. Biotechnol., 20:1228-1233 (2002)). PNA-mediated triplex-formation induces DNA repair and recombination of the genomic site with a 60-nucleotide sense donor DNA that is homologous to a portion of the β-globin intron 2 sequence except for providing a wild-type nucleotide at the IVS2-654 position. Via recombination, the splice-site mutation is corrected and expression of functional GFP occurs (FIG. 1A) (McNeer, et al., Gene Therapy, 20:658-669 (2013); Bahal, et al., Curr. Gene Ther., 14:331-342 (2014)). […]
as §1, with “Enrichment for CD117 was confirmed by flow cytometry. CD117+ enriched cells were labeled with CD117-APC (BD Pharmingen™ catalog #558451) antibody. Cells were co-labelled with control IgG antibody (BD Pharmingen™ catalog #555746) for gating purposes.” left out

[6] = system: 120-bp DNA duplexes containing the respective target sequences (β-globin intron 2); assay: DNA binding gel shift assay of tcPNAs; design: species or system human; conditions: 120-bp dsDNA, 37 C, 10 mM NaPi pH 7.4
Procedure: For gel electrophoresis, synthetic 120 bp dsDNA targets were incubated with indicated oligomers at 37 C in low ionic strength buffer (10 mM NaPi, pH 7.4). The samples were separated on 10% non-denaturing polyacrylamide gels in 1×TBE buffer. The gels were run at […] for 1.5 hr. After electrophoresis, the gels were stained with 1×SYBR-Gold (catalog #S11494, Invitrogen) for 10 min, washed 2× with 1×TBE buffer, and then imaged using a gel documentation system (BioDoc-It System). The images were then inverted using Adobe Photoshop 6.0.

H-KKK-TJTJTTJT-OOO-TCTTCTCTGTCTCCACAT-KKK-NH2 (TNTNTTNTTCTTCTCTGTCTCCACAT; listed as DNA, chemistry not fully specified) [SCD-tcPNA 3]
binding to 120 bp double-stranded DNA fragments (gel mobility shift) [1]: binding

CC(C)c1cc(-c2n[nH]c(=O)n2-c2ccc3c(ccn3C)c2)c(O)cc1O [STA-9090/Ganetespib]
effect on gene editing (% gene correction, GFP positive cells) [2]: enhances gene editing

C[C@@]1(CO)[C@H](O)CC[C@@]2(C)[C@H]1CC[C@H]1C[C@@H]3C[C@@]12CC[C@]3(O)CO [aphidicolin]
effect on gene editing (% gene correction, GFP positive cells) [2]: boosts gene editing

Cn1cnc2c(F)c(Nc3ccc(Br)cc3F)c(C(=O)NOCCO)cc21 [MEK162, reference compound]
gene editing frequency in pre-sorted CD117+ cells in presence of kinase inhibitor [3]: 2.6%
HDR repair activity (luciferase reactivation) in CD117+ cells [4]: diminished

O=C(c1cc(Cc2n[nH]c(=O)c3ccccc23)ccc1F)N1CCN(C(=O)C2CC2)CC1 [AZD-2281]
effect on gene editing (% gene correction, GFP positive cells) [2]: boosts gene editing

H-KKK-TTJTTTJTTJTJ-OOO-CTCTTCTTTCTTGACAGG-KKK-NH2 (TTNTTTNTTNTNCTCTTCTTTCTTGACAGG; lysine caps, linker, C-terminal amide, chemistry not fully specified) [γtcPNA4-Scr, scrambled version of γtcPNA4 with the same base composition]
genome modification frequency (% GFP+ cells) [5]: no modification
binding to target site in duplex DNA (gel shift) [6]: No binding

Cc1nc(Nc2ncc(C(=O)Nc3c(C)cccc3Cl)s2)cc(N2CCN(CCO)CC2)n1 [Dasatinib]
fold reduction of gene editing frequency ([3]; CD117+ cells, inhibition of c-Kit kinase): ~4 fold
gene editing frequency in pre-sorted CD117+ cells in presence of kinase inhibitor [3]: 2.0%

H-KKK-JTTTJTTTJTJT-OOO-TCTCTTTCTTTCAGGGCA-KKK-NH2 (NTTTNTTTNTNTTCTCTTTCTTTCAGGGCA; miniPEG γ units, lysine caps, amide, chemistry not fully specified) [γtcPNA4]
genome modification frequency (% GFP+ cells) [5]: 1.62%

H-KKK-TTJJTJT-OOO-TCTCCTTAAACCTGTCTT-KKK-NH2 (TTNNTNTTCTCCTTAAACCTGTCTT; listed as DNA, chemistry not fully specified) [SCD-tcPNA 2]
binding to 120 bp double-stranded DNA fragments (gel mobility shift) [1]: binding

Nc1cc(C(F)(F)F)c(-c2cc(N3CCOCC3)nc(N3CCOCC3)n2)cn1 [BKM120, reference compound]
gene editing frequency in pre-sorted CD117+ cells in presence of kinase inhibitor [3]: 4.1%
HDR repair activity (luciferase reactivation) in CD117+ cells [4]: diminished

H-KKK-JJTJTTJ-OOO-CTTCTCCACAGGAGTCAG-KKK-NH2 (NNTNTTNCTTCTCCACAGGAGTCAG; listed as DNA, chemistry not fully specified) [SCD-tcPNA 1]
binding to 120 bp double-stranded DNA fragments (gel mobility shift) [1]: binding
